From patent publication US8158806B2, “DAT1” (Department of Biotechnology, priority 2004, dated 2012)
Where two headings read alike, the source gives them in different places.

Assays:
SW 620 = experiment: MTT cell viability assay, SW 620; assay type: cell-based; details: SW 620 (Human colon), 48 hours, average of three experiments, read-out: IC50 values (growth inhibition constants)
Experimental: (§1) The compound DAT1 was tested for its cytotoxicity on human cervical, uterus and colon cancer cell lines and mouse fibrocercoma cells. Cell lines were obtained from ATCC, USA and NCCS, Pune, India. MTT assay, which correlates a fomazan dye formation wife the number of viable cells, was used for this purpose.
(§2) • 3. Cell Viability Assay: MTT assay was used to determine fee number of viable cells upon drug addition. Cells were seeded in microtitre plates (generally 5×10^3 cells per well) and were incubated with different concentrations of the cytotoxic agents for 48 h. Subsequently, 100 μl of MTT solution (0.6 mg/ml) was added per well and incubated at 37° C. for additional 2 h. The amount of formazan salt was quantified in quadruplicates by recording fee absorbance at 570 ran using a Biorad Plate reader. The growth inhibition constants (IC50) were calculated from the semi logarithmic dose response plots using fee nonlinear regression program Origin. All the experiments were done for at least three times. • 4. Microtubule and Tubulin Preparation: Microtubular protein was prepared from goat brains by two cycles of temperature dependent assembly-disassembly process in PEM buffer (100 mM PIPES, pH 6.9, 1 mM MgCl2 & 1 mM EGTA ) with 1 mM GTP at 37° C. For fee polymerization experiments, it was followed by one more cycle in PEM. Tubulin was purified from 2X MTP using glutamate buffer for assembly. • 5. Polymerization assay: MTP polymerization, in fee presence or absence of DAT1, was measured by the time course of fee turbidity at 37° at 345 nm. A Shimadzu UV-1601 double beam spectrophotometer fitted with a temperature-controlled circulating water bath was used for this purpose. • 6. […] Tubulin binding: Emission spectra of DAT1 in presence of tubulin were recorded from 400 nm to 600 nm using an excitation wavelength of 374 nm. Excitation and emission bandpasses are 2.5 nm each and the fluorescence values recorded are uncorrected. All fluorescence measurements were performed in a Perkin-Elmer model LS50B Luminescence spectrometer.

HeLa = experiment: MTT cell viability assay, HeLa; assay type: cell-based; details: HeLa (Human cervix), 48 hours, average of three experiments, read-out: IC50 values (growth inhibition constants)
Experimental: as §1, §2

MES-SA/Dx5 = experiment: MTT cell viability assay, multidrug resistant MES-SA/Dx5; assay type: cell-based, Human; details: for IC50: MES-SA/Dx5 (Human uterus), multidrug resistant, 48 hours, MTT, average of three experiments, read-out: IC50 values (growth inhibition constants)
Experimental: as §1
• 3. Cell Viability Assay: MTT assay was used to determine fee number of viable cells upon drug addition. Cells were seeded in microtitre plates (generally 5×10^3 cells per well) and were incubated with different concentrations of the cytotoxic agents for 48 h. Subsequently, 100 μl of MTT solution (0.6 mg/ml) was added per well and incubated at 37° C. for additional 2 h. The amount of formazan salt was quantified in quadruplicates by recording fee absorbance at 570 ran using a Biorad Plate reader. The growth inhibition constants (IC50) were calculated from the semi logarithmic dose response plots using fee nonlinear regression program Origin. All the experiments were done for at least three times. • 4. Microtubule and Tubulin Preparation: Microtubular protein was prepared from goat brains by two cycles of temperature dependent assembly-disassembly process in PEM buffer (100 mM PIPES, pH 6.9, 1 mM MgCl2 & 1 mM EGTA ) with 1 mM GTP at 37° C. For fee polymerization experiments, it was followed by one more cycle in PEM. Tubulin was purified from 2X MTP using glutamate buffer for assembly. • 5. Polymerization assay: MTP polymerization, in fee presence or absence of DAT1, was measured by the time course of fee turbidity at 37° at 345 nm. A Shimadzu UV-1601 double beam spectrophotometer fitted with a temperature-controlled circulating water bath was used for this purpose. • 6. Immunofluorescence assay: HeLa cells were incubated with the drug for 24 h at 37° C., washed with PBS and fixed with 4% paraformaldehyde at 4° C. Subsequently, they were washed and permeabilized with 0.2% Triton X-100 in PBS for 20 min at 37° C. […] Tubulin binding: Emission spectra of DAT1 in presence of tubulin were recorded from 400 nm to 600 nm using an excitation wavelength of 374 nm. Excitation and emission bandpasses are 2.5 nm each and the fluorescence values recorded are uncorrected. All fluorescence measurements were performed in a Perkin-Elmer model LS50B Luminescence spectrometer.

IMR 90 (lung epithelial) = experiment: Cell survival in normal immortalized cell line; assay type: cell-based; details: concentration much more than the IC50 values in the cancer cell lines; data not shown
From the text: The cell survival in fee normal immortalized cell line IMR 90 (lung epithelial) was good after fee treatment of DAT1 in a concentration which was much more than the IC50 values in all fee cancer cell lines tested. In comparison, fee cell survival was less upon vinblastine treatment and similar upon paclitaxel treatment in similar concentrations (data not shown).

HCT 116 = experiment: MTT cell viability assay, HCT 116; assay type: cell-based; details: HCT 116 (Human colon), 48 hours, average of three experiments, read-out: IC50 values (growth inhibition constants)
Experimental: as §1, §2

SiHa = experiment: MTT cell viability assay, SiHa; assay type: cell-based; details: SiHa (Human cervix), 48 hours, average of three experiments, read-out: IC50 values (growth inhibition constants)
Experimental: as §1
(§3) • 3. Cell Viability Assay: MTT assay was used to determine fee number of viable cells upon drug addition. Cells were seeded in microtitre plates (generally 5×10^3 cells per well) and were incubated with different concentrations of the cytotoxic agents for 48 h. Subsequently, 100 μl of MTT solution (0.6 mg/ml) was added per well and incubated at 37° C. for additional 2 h. The amount of formazan salt was quantified in quadruplicates by recording fee absorbance at 570 ran using a Biorad Plate reader. The growth inhibition constants (IC50) were calculated from the semi logarithmic dose response plots using fee nonlinear regression program Origin. […] Polymerization assay: MTP polymerization, in fee presence or absence of DAT1, was measured by the time course of fee turbidity at 37° at 345 nm. […] Tubulin binding: Emission spectra of DAT1 in presence of tubulin were recorded from 400 nm to 600 nm using an excitation wavelength of 374 nm. Excitation and emission bandpasses are 2.5 nm each and the fluorescence values recorded are uncorrected. […]

[1] = test system: human cervical, uterus and colon cancer cell lines and mouse fibrocercoma cells; experiment: MTT cytotoxicity, panel of cancer cell lines (summary); assay type: cell-based; details: read-out: IC50 values, range
Experimental: as §1, §3

CaSki = experiment: MTT cell viability assay, CaSki; assay type: cell-based; details: Ca-Ski, CaSki (Human cervix), 48 hours, average of three experiments, read-out: IC50 values (growth inhibition constants)
Experimental: as §1, §3

L-929 = experiment: MTT cell viability assay, L-929; assay type: cell-based; details: L929, L-929 (Mouse connective tissue), 48 hours, average of three experiments, read-out: IC50 values (growth inhibition constants)
Experimental: as §1, §3

[2] = multidrug resistant cell line MES-SA/DX5

Structure (SMILES)	IC50 (SW 620) [nM]	IC50 (HeLa) [nM]	IC50 (MES-SA/Dx5) [nM]	cell survival after treatment (IMR 90 (lung epithelial))	IC50 (HCT 116) [nM]	times more active than paclitaxel (MES-SA/Dx5; [2]) [times]	times more active than vinblastine (MES-SA/Dx5; [2]) [times]	IC50 (SiHa) [nM]	IC50 ([1]; in 2 cell lines) [nM]	IC50 ([1]; in 5 out of the 9 cell lines tested) [nM]	IC50 (CaSki) [nM]	IC50 (L-929) [nM]
CC[C@]1(O)C[C@@H]2CN(CCc3c([nH]c4ccccc34)[C@@](C(=O)OC)(c3cc4c(cc3OC)N(C)[C@H]3[C@@](O)(C(=O)OC)[C@H](OC(C)=O)[C@]5(CC)C=CCN6CC[C@]43[C@@H]65)C2)C1 [Vinblastine]	200	1	730	less	5	–	–	–	–	–	–	–
COc1ccc(Nc2nc(N)c(C(=O)c3ccccc3)s2)cc1 [DAT1, Diaminoketothiazole]	200	54	350	good	300	15	2	5000	1000 to 5000	50 to 300	200	1000
CC(=O)O[C@H]1C(=O)[C@@]2(C)[C@H]([C@H](OC(=O)c3ccccc3)[C@]3(O)C[C@H](OC(=O)[C@H](O)[C@@H](NC(=O)c4ccccc4)c4ccccc4)C(C)=C1C3(C)C)[C@]1(OC(C)=O)CO[C@@H]1C[C@@H]2O [Paclitaxel]	7	34	8600	similar	12	–	–	1100	–	–	20	300
